Assays:
Type in all cases: in vivo
Kochia scoparia (KCHSC) [1] = assay: Post-emergence application in greenhouse trials, KCHSC
Description: (§1) In the examples below, using the method of S. R. Colby (1967) “Calculating synergistic and antagonistic responses of herbicide combinations”, Weeds 15, p. 22ff., the value E, which is expected if the activity of the individual active compounds is only additive, was calculated: E=X+Y−(X·Y/100) • where • X=percent activity using active herbicide A at an application rate a; • Y=percent activity using active trifludimoxazin at an application rate b; • E=expected activity (in %) by A+B at application rates a+b.
(§2) If the value found experimentally is higher than the value E calculated according to Colby, a synergistic effect is present.
(§3) The culture containers used were plastic pots containing loamy sand with approximately 3.0% of humus as substrate. The seeds of the test plants were sown separately for each species.
(§4) For the post-emergence treatment, the test plants were grown to a plant height of from 3 to 15 cm, depending on the plant habit, and only then treated with the active compounds which had been suspended or emulsified in water. To this end, the test plants were either sown directly, and grown in the same containers, or they were first grown separately as seedlings and transplanted into the test containers a few days prior to treatment.
(§5) Depending on the species, the plants were kept at 10-25° C. and 20-35° C., respectively.
(§6) The test period extended over 2 to 4 weeks. During this time, the plants were tended and their response to the individual treatments was evaluated.
(§7) Evaluation was carried out using a scale from 0 to 100. 100 means no emergence of the plants, or complete destruction of at least the above-ground parts, and 0 means no damage or normal course of growth. A good herbicidal activity is given at values of at least 70, and very good herbicidal activity is given at values of at least 85.
(§8) In the greenhouse trials, unless indicated otherwise, herbicide A, trifludimoxazin and saflufenacil were formulated (50 g/I) and applied with addition of 1% MSO (methylated seed oil) as adjuvant. The solvent used was water (200 I/ha).

[2] = test system: Brachiaria decumbens (BRADC); assay: Post-emergence application in greenhouse trials, BRADC; conditions: GS 13
Description: as §1, §2, §3, §4, §5, §6, §7, §8

Cyperus iria (CYPIR) = assay: Post-emergence application in field trials, CYPIR; conditions: 3 DAT, height 3-5 cm
Description: as §1, §2
(§9) On field test sites, natural weed infestation or seeded weeds were treated post-emergence of the weeds.
(§10) In the field trials, the weedy plants were treated as indicated below.
(§11) Herbicide A-1 (342 g/I), trifludimoxazin (500 g/I) and saflufenacil (342 g/I) were, together with addition of 1% MSO (methylated seed oil) as adjuvant (unless indicated otherwise), formulated in water as distribution medium as indicated and sprayed with commercial flat fan nozzles.
(§12) In the following experiments, the herbicidal activity for the individual herbicidal compositions (solo and mixture applications) was assessed at the indicated days after treatment (DAT). The assessments for the damage on undesired weeds caused by the composition was carried out using a scale from 0 to 100%, compared to the untreated control plants. Here, 0 means no damage and 100 means complete destruction of the plants.
(§13) Herbicide A-1 (100 g/l) and trifludimoxazin (500 g/l) were, together with addition of 1% MSO (methylated seed oil) as adjuvant (unless indicated otherwise), formulated in water as distribution medium as indicated and sprayed with commercial flat fan nozzles.

[3] = test system: Sorghum halapense (SORHA); assay: Post-emergence application in greenhouse trials, SORHA
Description: as §1, §2, §3, §4, §5, §6, §7, §8

[4] = test system: Erigeron canadensis (ERICA); assay: Post-emergence application in field trials, ERICA; conditions: 22 DAT; water volume 200 l/ha; growth stage 15-20; 25 g ai/ha
Description: as §1, §2, §9, §10, §11
(§14) In the following experiments, the herbicidal activity for the individual herbicidal compositions (solo and mixture applications) was assessed at the indicated days after treatment (DAT). […]

Kochia scoparia (KCHSC) [5] = assay: Post-emergence application in field trials, KCHSC; conditions: 28 DAT; water volume 100 l/ha; pre plant burndown; growth stage 11-16; height 1-9 cm; 18 g ai/ha
Description: as §1, §2, §9, §10, §11, §14

Sorghum bicolor (SORVU) = assay: Post-emergence application in field trials, SORVU; conditions: 22 DAT, water volume 200 l/ha, growth stage 21-31, volunteer crop, non PPO-i herbicide tolerant
Description: as §1, §2, §9, §10, §11, §14

[6] = test system: Abutilon theophrasti (ABUTH); assay: Post-emergence application in greenhouse trials, ABUTH
Description: as §1, §2, §3, §4, §5, §6, §7, §8

[7] = test system: Amaranthus palmeri (AMAPA); assay: Post-emergence application in field trials, AMAPA; conditions: 21 DAT, water volume 200 l/ha, 0.25 l/ha Dash MSO Max, pre plant burndown, height 30 cm
Description: as §1, §2, §9, §10, §11, §12, §13

Sinapis alba (SINAL) = assay: Post-emergence application in field trials, SINAL; conditions: 7 DAT; water volume 200 l/ha; growth stage 14-21; height 11-12 cm; 12.5 g ai/ha
Description: as §1, §2, §9, §10, §11, §14

[8] = 20 DAT, growth stage 33, 0.3 g ai/ha
[9] = 20 DAT, growth stage 33, 0.5 g ai/ha
[10] = water volume 200 l/ha, growth stage 13-14, 25 g ai/ha
[11] = 20 DAT, growth stage 14, 0.3 g ai/ha
[12] = 20 DAT, growth stage 33, 0.2 g ai/ha

SMILES: CCOC(=O)COc1ccccc1Oc1nc(-n2c(=O)cc(C(F)(F)F)n(C)c2=O)c(F)cc1Cl [A-1, ethyl 2-[2-[[3-chloro-5-fluoro-6-[3-methyl-2,6-dioxo-4-(trifluoromethyl)pyrimidin-1-yl]-2-pyridyl]oxy]phenoxy]acetate]
- % Herbicidal activity (Kochia scoparia (KCHSC) [1]; 6 DAT, GS 33, A-1 0.4 g ai/ha): 55%
- % Herbicidal activity (Kochia scoparia (KCHSC) [1]; 6 DAT, GS 33, A-1 0.5 g ai/ha): 65%
- % Herbicidal activity (Kochia scoparia (KCHSC) [1]; 6 DAT, GS 33, A-1 0.9 g ai/ha): 90%
- % Herbicidal activity (Kochia scoparia (KCHSC) [1]; 20 DAT, GS 33, A-1 0.2 g ai/ha): 15%
- % Herbicidal activity (Kochia scoparia (KCHSC) [1]; 20 DAT, GS 33, A-1 0.3 g ai/ha): 55%
- % Herbicidal activity (Kochia scoparia (KCHSC) [1]; 20 DAT, GS 33, A-1 0.5 g ai/ha): 55%
- % Herbicidal activity (Kochia scoparia (KCHSC) [1]; 20 DAT, GS 33, A-1 0.9 g ai/ha): 90%
- % Herbicidal activity (Kochia scoparia (KCHSC) [1]; [8]): 55%
- % Herbicidal activity (Kochia scoparia (KCHSC) [1]; [9]): 55%
- % Herbicidal activity ([2]; 7 DAT, B-1 formulated as 500 g/l, A-1 2 g ai/ha): 90%
- % Herbicidal activity ([2]; 7 DAT, A-1 0.4 g ai/ha): 40%
- % Herbicidal activity ([2]; 7 DAT, A-1 0.8 g ai/ha): 50%
- % Herbicidal activity ([2]; 7 DAT, A-1 0.9 g ai/ha): 60%
- % Herbicidal activity ([2]; 7 DAT, A-1 1 g ai/ha): 60%
- % Herbicidal activity ([2]; 20 DAT, B-1 formulated as 500 g/l, A-1 2 g ai/ha): 90%
- % Herbicidal activity ([2]; 20 DAT, A-1 0.9 g ai/ha): 55%
- % Herbicidal activity (Cyperus iria (CYPIR); [10]): 23%
- % Herbicidal activity (Cyperus iria (CYPIR); water volume 300 l/ha, burndown in fruit plantation (citrus), GS 13-14, A-1 25 g ai/ha): 23%
- % Herbicidal activity ([3]; 7 DAT, B-1 formulated as 500 g/l, GS 14, A-1 2 g ai/ha): 80%
- % Herbicidal activity ([3]; 20 DAT, B-1 formulated as 500 g/l, GS 14, A-1 2 g ai/ha): 60%
- % Herbicidal activity ([3]; 20 DAT, GS 14, A-1 0.2 g ai/ha): 10%
- % Herbicidal activity ([3]; 20 DAT, GS 14, A-1 0.3 g ai/ha): 10%
- % Herbicidal activity [3, 11]: 10%
- % Herbicidal activity [4]: 70%
- % Herbicidal activity (Kochia scoparia (KCHSC) [5]): 57%
- % Herbicidal activity (Sorghum bicolor (SORVU); 20 g ai/ha): 93%
- % Herbicidal activity ([6]; 6 DAT, GS 33, A-1 0.2 g ai/ha): 65%
- % Herbicidal activity ([6]; 6 DAT, GS 33, A-1 0.3 g ai/ha): 65%
- % Herbicidal activity ([6]; 6 DAT, GS 33, A-1 0.8 g ai/ha): 85%
- % Herbicidal activity ([6]; 20 DAT, GS 33, A-1 0.2 g ai/ha): 15%
- % Herbicidal activity ([6]; 20 DAT, GS 33, A-1 0.3 g ai/ha): 15%
- % Herbicidal activity [6, 12]: 15%
- % Herbicidal activity ([7]; A-1 12.5 g ai/ha): 70%
- % Herbicidal activity ([7]; A-1 25 g ai/ha): 85%
- % Herbicidal activity (Sinapis alba (SINAL)): 55%

SMILES: C#CCN1C(=O)C(F)(F)Oc2cc(F)c(-n3c(=O)n(C)c(=S)n(C)c3=O)cc21 [B-1, trifludimoxazin]
- % Herbicidal activity (Kochia scoparia (KCHSC) [1]; 6 DAT, GS 33, B-1 0.3 g ai/ha): 45%
- % Herbicidal activity (Kochia scoparia (KCHSC) [1]; 6 DAT, GS 33, B-1 0.5 g ai/ha): 80%
- % Herbicidal activity (Kochia scoparia (KCHSC) [1]; 6 DAT, GS 33, B-1 0.8 g ai/ha): 85%
- % Herbicidal activity (Kochia scoparia (KCHSC) [1]; 20 DAT, GS 33, B-1 0.3 g ai/ha): 35%
- % Herbicidal activity (Kochia scoparia (KCHSC) [1]; 20 DAT, GS 33, B-1 0.9 g ai/ha): 80%
- % Herbicidal activity (Kochia scoparia (KCHSC) [1]; 20 DAT, GS 33, B-1 1 g ai/ha): 98%
- % Herbicidal activity (Kochia scoparia (KCHSC) [1]; [8]): 35%
- % Herbicidal activity (Kochia scoparia (KCHSC) [1]; [9]): 75%
- % Herbicidal activity ([2]; 7 DAT, B-1 formulated as 500 g/l, B-1 1 g ai/ha): 15%
- % Herbicidal activity ([2]; 7 DAT, B-1 formulated as 500 g/l, B-1 2 g ai/ha): 15%
- % Herbicidal activity ([2]; 7 DAT, B-1 0.2 g ai/ha): 10%
- % Herbicidal activity ([2]; 7 DAT, B-1 0.3 g ai/ha): 10%
- % Herbicidal activity ([2]; 7 DAT, B-1 0.4 g ai/ha): 10%
- % Herbicidal activity ([2]; 7 DAT, B-1 0.8 g ai/ha): 45%
- % Herbicidal activity ([2]; 20 DAT, B-1 formulated as 500 g/l, B-1 2 g ai/ha): 10%
- % Herbicidal activity ([2]; 20 DAT, B-1 0.3 g ai/ha): 5%
- % Herbicidal activity (Cyperus iria (CYPIR); [10]): 63%
- % Herbicidal activity (Cyperus iria (CYPIR); water volume 300 l/ha, burndown in fruit plantation (citrus), GS 13-14, B-1 25 g ai/ha): 65%
- % Herbicidal activity ([3]; 7 DAT, B-1 formulated as 500 g/l, GS 14, B-1 1 g ai/ha): 15%
- % Herbicidal activity ([3]; 7 DAT, B-1 formulated as 500 g/l, GS 14, B-1 2 g ai/ha): 35%
- % Herbicidal activity ([3]; 20 DAT, B-1 formulated as 500 g/l, GS 14, B-1 2 g ai/ha): 30%
- % Herbicidal activity ([3]; 20 DAT, GS 14, B-1 0.9 g ai/ha): 65%
- % Herbicidal activity ([3]; 20 DAT, GS 14, B-1 1.1 g ai/ha): 65%
- % Herbicidal activity [3, 11]: 10%
- % Herbicidal activity [4]: 27%
- % Herbicidal activity (Kochia scoparia (KCHSC) [5]): 68%
- % Herbicidal activity (Sorghum bicolor (SORVU); 12.5 g ai/ha): 20%
- % Herbicidal activity ([6]; 6 DAT, GS 33, B-1 0.2 g ai/ha): 20%
- % Herbicidal activity ([6]; 6 DAT, GS 33, B-1 0.3 g ai/ha): 20%
- % Herbicidal activity ([6]; 6 DAT, GS 33, B-1 0.4 g ai/ha): 35%
- % Herbicidal activity ([6]; 20 DAT, GS 33, B-1 0.3 g ai/ha): 0%
- % Herbicidal activity [6, 12]: 0%
- % Herbicidal activity ([7]; B-1 12.5 g ai/ha): 20%
- % Herbicidal activity (Sinapis alba (SINAL)): 82%

Reference: patent US12213483B1, “Herbicidal compositions comprising trifludimoxazin” (BASF SE, priority 2024, dated 2025)
